According to US20230027066A1 (Urovant Sciences GmbH, priority 2019, published 2023):

Test system: men and women with overactive bladder
Assay: Phase 3 study of vibegron 75 mg vs placebo and tolterodine ER 4 mg, 12 weeks, efficacy (voiding and urine volume diary)
Format: in vivo, human
Experimental: Enrollment of patients included individuals with OAB Wet (those with UUI, the involuntary loss of urine accompanied by urgency) and OAB Dry (those without UUI). A total of 1,518 patients were randomized across 215 study sites into one of three groups for a 12-week treatment period.
The study consisted of a Screening Period (1 to 5 weeks), a single-blind Run-in Period (2 weeks), a randomized double-blind Treatment Period (12 weeks), and a Follow-up Period (4 weeks).
Tolterodine ER 4 mg was the active control. […] Between the Baseline and Week 12 Visits, patients had study assessments at Week 4 and Week 8.
The Patient Voiding Diary was used by participants (via the eDiary or paper Diary) to record the frequency of daily OAB symptoms including all micturitions, urgency, incontinence, and main reason for incontinence by selecting the respective box for each symptom occurring during the course of a given day and night.
Urine volume data were collected separately by patients using the Urine Volume component of the eDiary, or the paper Urine Volume Chart. The Urine Volume Chart is a tool used in clinical practice and clinical investigation to assess voiding functions over a 24-hour period and is regarded as a useful instrument in the investigation of patients with voiding symptoms. Urine volume may be collected during any one (1) of the 7 Diary Days prior to the visit, and it should be recorded for ˜24 hours starting from the time the patient gets up for the day and continues until the time the patient gets up for the day on the next day.
For the purpose of this study, the number of micturitions was defined as the number of times a patient has voided in the toilet as indicated on the Patient Voiding Diary. Average daily micturitions were calculated using the daily entries in the Patient Voiding Diary, which was completed over the 7 days prior to each study visit. Average daily number of micturitions were calculated as the total number of micturitions that occurred on a Complete Diary Day divided by the number of Complete Diary Days in the Patient Voiding Diary. A complete diary day required confirmation by the patient in the Patient Voiding Diary that all voids and leakages had been recorded for the diary day. Baseline was defined as the average number of micturitions occurring during the last evaluable diary prior to the Baseline Visit.
The number of UUI episodes was defined as the number of times a patient had checked “urge” as the reason for accidental urine leakage. Average daily UUI episodes at each study visit were calculated in the same manner as described above for the micturition endpoint. The UUI endpoint were analyzed using only OAB Wet patients.
For the analysis of the co-primary endpoints (change from baseline in average number of daily micturitions at Week 12 and change from baseline in average number of daily urge urinary incontinence episodes at Week 12, and placebo adjustment of each), a mixed model for repeated measure (MMRM) with restricted maximum likelihood estimation was used. This model corrects for dropout and accounts for the fact that measurements taken on the same patient over time tend to be correlated by using all available information on patients within the same covariate set to derive an estimate of the treatment effect for a dropout-free population. The analysis model for each efficacy endpoint includes terms for treatment, visit, OAB Type (Wet vs Dry), Sex (Female vs Male), Region (US vs Rest of World), baseline score, and interaction of visit by treatment.
Primary inferences were drawn from treatment differences for the changes from baseline derived from the MMRM models at Week 12. As part of secondary objectives, the treatment differences for each post baseline visit were also derived using the same MMRM model. […]

[1] = Week 8, events of Events/Censored
[2] = Week 12, Age ≥ 75 years (posthoc analysis)
[3] = Week 12, No Prior ACH Use in last 12 Mo.
[4] = Week 12, No Prior B3 Agonist Use in last 12 Mo.
[5] = Week 12, Prior ACH Use in last 12 Mo.
[6] = Week 12, Prior B3 Agonist Use in last 12 Mo.

Cc1ccc(O)c([C@H](CCN(C(C)C)C(C)C)c2ccccc2)c1 [Tolterodine ER, tolterodine, reference compound]
Average daily number of urgency episodes, Mean (SD) (Week 8): 5.60 (4.266) | Average volume voided per micturition, Active - Placebo LS Mean Difference (Week 8): 14.4 mL | Average volume voided per micturition, Week 8 Mean (SD) (Week 8): 162.9 (74.46) mL | Change from Baseline in Average Daily Number of Total Incontinence, LS Mean (SE) (Week 8): −1.8 (0.16) | Change from baseline in average daily number of urgency episodes, LS Mean (Week 8): −2.2 | Change from baseline in average volume voided per micturition, LS Mean (SE) (Week 8): 17.5 (3.44) mL | Estimated Incidence of Subjects with 50% Decrease from Baseline (urgency episodes) (Week 8): 30.9 | Estimated Incidence of Subjects with 100% Decrease from Baseline (UUI episodes) (Week 8): 15.8 | Total Incontinence, Active - Placebo LS Mean Difference (SE) (Week 8): −0.5 (0.17) | Urgency episodes, Active - Placebo LS Mean Difference (Week 8): −0.6 | First 50% Reduction in Urgency Episodes, Events [1]: 127/290 | First 100% Reduction in UUI Episodes, Events [1]: 49/270 | Average Daily Number of Total Incontinence, Mean (SD) (Week 12): 1.89 (2.353) | Average daily number of urgency episodes, Mean (SD) (Week 12): 5.36 (4.425) | Average volume voided per micturition, Active - Placebo LS Mean Difference (Week 12): 13.3 mL | Average volume voided per micturition, Week 12 Mean (SD) (Week 12): 162.1 (72.96) mL | Change from Baseline in Average Daily Number of Total Incontinence, LS Mean (SE) (Week 12): −2.0 (0.16) | Change from baseline in average daily number of urgency episodes, LS Mean (Week 12): −2.5 | Change from baseline in average volume voided per micturition, LS Mean (SE) (Week 12): 15.5 (3.52) mL | Estimated Incidence of Subjects with 50% Decrease from Baseline (urgency episodes) (Week 12): 40.5 | Estimated Incidence of Subjects with 100% Decrease from Baseline (UUI episodes) (Week 12): 24.4 | Total Incontinence, Active - Placebo LS Mean Difference (SE) (Week 12): −0.5 (0.17) | Urgency episodes, Active - Placebo LS Mean Difference (Week 12): −0.4 | Micturitions: Week 12 CFB Mean (descriptive statistics) (Week 12, <65 yrs): −1.99 | UUI: Week 12 CFB Mean (descriptive statistics) (Week 12, African American): −1.42 | UUI: Week 12 CFB Median (Week 12, African American): −1.43 | Micturitions: Week 12 CFB LS Mean (95% CI) (Week 12, Age < 65 years): −1.8 | UUI: Week 12 CFB LS Mean (95% CI) (Week 12, Age < 65 years): −1.8 | UUI: Week 12 CFB Mean (descriptive statistics) (Week 12, Age < 65 years): −1.72 | Micturitions: Week 12 CFB LS Mean (95% CI) (Week 12, Age ≥ 65 years): −1.3 | UUI: Week 12 CFB LS Mean (95% CI) (Week 12, Age ≥ 65 years): −1.8 | UUI: Week 12 CFB Mean (descriptive statistics) (Week 12, Age ≥ 65 years): −1.80 | Micturitions: Week 12 CFB LS Mean (95% CI) [2]: −1.5 | UUI: Week 12 CFB LS Mean (95% CI) [2]: −2.0 | UUI: Week 12 CFB Mean (descriptive statistics) (Week 12, Asian): −0.21 | UUI: Week 12 CFB Median (Week 12, Asian): −0.14 | Micturitions: Week 12 CFB LS Mean (95% CI) (Week 12, Females): −1.7 | Micturitions: Week 12 CFB Mean (descriptive statistics) (Week 12, Females): −1.88 | UUI: Week 12 CFB LS Mean (95% CI) (Week 12, Females): −1.8 | UUI: Week 12 CFB Mean (descriptive statistics) (Week 12, Females): −1.71 | Micturitions: Week 12 CFB LS Mean (95% CI) (Week 12, Males): −1.0 | Micturitions: Week 12 CFB Mean (descriptive statistics) (Week 12, Males): −1.28 | UUI: Week 12 CFB LS Mean (95% CI) (Week 12, Males): −2.0 | UUI: Week 12 CFB Mean (descriptive statistics) (Week 12, Males): −2.08 | Micturitions: Week 12 CFB Mean (descriptive statistics) (Week 12, Males with BPH): −1.25 | UUI: Week 12 CFB Mean (descriptive statistics) (Week 12, Males with BPH): −2.15 | Micturitions: Week 12 CFB Mean (descriptive statistics) (Week 12, Males without BPH): −1.29 | UUI: Week 12 CFB Mean (descriptive statistics) (Week 12, Males without BPH): −2.05 | Micturitions: Week 12 CFB Mean (descriptive statistics) [3]: −1.82 | UUI: Week 12 CFB Mean (descriptive statistics) [3]: −1.88 | Micturitions: Week 12 CFB Mean (descriptive statistics) [4]: −1.83 | UUI: Week 12 CFB Mean (descriptive statistics) [4]: −1.83 | Micturitions: Week 12 CFB LS Mean (95% CI) (Week 12, Non-White): −1.3 | Micturitions: Week 12 CFB Mean (descriptive statistics) (Week 12, Non-White): −1.42 | UUI: Week 12 CFB LS Mean (95% CI) (Week 12, Non-White): −1.3 | UUI: Week 12 CFB Mean (descriptive statistics) (Week 12, Non-White): −1.11 | UUI: Week 12 CFB Median (Week 12, Non-White): −1.00 | Micturitions: Week 12 CFB LS Mean (95% CI) (Week 12, Overall): −1.6 | Micturitions: Week 12 CFB Mean (descriptive statistics) (Week 12, Overall): −1.78 | UUI: Week 12 CFB LS Mean (95% CI) (Week 12, Overall): −1.8 | UUI: Week 12 CFB Mean (descriptive statistics) (Week 12, Overall): −1.75 | Micturitions: Week 12 CFB Mean (descriptive statistics) [5]: −1.52 | UUI: Week 12 CFB Mean (descriptive statistics) [5]: −0.98 | Micturitions: Week 12 CFB Mean (descriptive statistics) [6]: −1.30 | UUI: Week 12 CFB Mean (descriptive statistics) [6]: −0.65 | Micturitions: Week 12 CFB LS Mean (95% CI) (Week 12, Region: Non-US): −1.0 | Micturitions: Week 12 CFB Mean (descriptive statistics) (Week 12, Region: Non-US): −1.38 | UUI: Week 12 CFB LS Mean (95% CI) (Week 12, Region: Non-US): −2.0 | UUI: Week 12 CFB Mean (descriptive statistics) (Week 12, Region: Non-US): −2.26 | Micturitions: Week 12 CFB LS Mean (95% CI) (Week 12, Region: US): −1.7 | Micturitions: Week 12 CFB Mean (descriptive statistics) (Week 12, Region: US): −1.83 | UUI: Week 12 CFB LS Mean (95% CI) (Week 12, Region: US): −1.7 | UUI: Week 12 CFB Mean (descriptive statistics) (Week 12, Region: US): −1.69 | Micturitions: Week 12 CFB LS Mean (95% CI) (Week 12, White): −1.6 | Micturitions: Week 12 CFB Mean (descriptive statistics) (Week 12, White): −1.90 | UUI: Week 12 CFB LS Mean (95% CI) (Week 12, White): −1.9 | UUI: Week 12 CFB Mean (descriptive statistics) (Week 12, White): −1.92 | UUI: Week 12 CFB Median (Week 12, White): −1.57
